Read-outs that look alike come from different tables or passages of the source.
Test: Pharmacokinetics of selexipag and ACT-333679 after oral and i.v. selexipag in subjects with stable PAH (Phase 3 switch study)
Format: in vivo, human
Settings: for AUC / Cmax: human, plasma, steady state; for AUC: read-out: AUCτ, ss Geom. Mean; for Cmax: read-out: Cmax, ss Geom. Mean
Description: This was a prospective, multicenter, open-label, single-sequence, cross-over, Phase 3 study. Based on the dose of selexipag received at study entry, subjects were allocated to one of the following groups, selexipag 200-1000 μg b.i.d. or selexipag 1200-1600 μg b.i.d. See, FIG. 1. The study comprised the following periods:
(ii) Treatment and observation period: The treatment and observation period included the following consecutive periods: • Period 1 included oral selexipag pre-treatment period for 1 day, in-hospital. This period started with intake of the morning dose of oral selexipag on Day 1 at Visit 2 and ended the following day, before initiation of the first infusion of i.v. selexipag. • Period 2 included i.v. selexipag treatment period for 36 hours [3 infusions], in-hospital. This period started in the morning of Day 2 at Visit 2 with the start of the first infusion of i.v. selexipag and ended in the evening of Day 3 at Visit 2 before the evening administration of oral selexipag. Administration of oral selexipag was interrupted during the i.v. selexipag treatment period. • Period 3 included oral selexipag post-treatment period for 7 to 11 day. This period started in the evening of Day 3 at Visit 2 with the administration of oral selexipag and ended 7-11 days later, at Visit 3.
Selexipag was provided as a dry powder to be reconstituted as an injectable solution for i.v. administration. Before administration, selexipag dry powder was to be reconstituted and diluted with sterile 0.9% NaCl solution. Each subject received an i.v. selexipag dose that corresponded to the subject's individual stable dose of oral selexipag. […] See, Table 4.
The intravenous infusion took place over a 87-minute period (2 infusions on Day 2 and 1 infusion on Day 3)
The following PK endpoints were analyzed for selexipag and its active metabolite, ACT-333679, after oral selexipag in Period 1 and after i.v. selexipag administration in Period 2. See, FIG. 2. • The area under the plasma-concentration time curve (AUC) during a dose interval at steady state (AUCτ, ss). • The maximum plasma concentration at steady state (Cmax, ss). • The time to reach maximum plasma concentration at steady state (tmax, ss). • Trough plasma concentration at steady state (Ctrough, ss).

tmax, ss between the i.v. and oral selexipag periods (Period 2 vs Period 1): comparable | slope of dose proportional increase in exposure (after i.v. selexipag, 450-1800 μg b.i.d. dose range): 0.697 | exposure after i.v. and oral selexipag administration (conclusion of the study): comparable | AUC (iv, Period 2 (i.v. selexipag)): 15.9 ng·h/mL | Cmax (iv, Period 2 (i.v. selexipag)): 2.6 ng/mL | AUC (Period 1 (oral selexipag)): 19.3 ng·h/mL | Cmax (Period 1 (oral selexipag)): 3.3 ng/mL | dose-normalized geometric mean ratio (i.v./oral selexipag) for AUCτ, ss (90% CI) (i.v. to oral dose ratio 1.125): 0.80 (0.71, 0.90) | dose-normalized geometric mean ratio (i.v./oral selexipag) for Cmax, ss (90% CI) (i.v. to oral dose ratio 1.125): 0.79 (0.65, 0.96)
SMILES: CC(C)N(CCCCOCC(=O)O)c1cnc(-c2ccccc2)c(-c2ccccc2)n1 [ACT-333679]

Reference: patent US20220323437A1, “METHODS FOR TREATING PULMONARY ARTERIAL HYPERTENSION” (ACTELION PHARMACEUTICALS LTD, priority 2019, published 2022)
